Test results published in ChEMBL document CHEMBL1201862, “PubChem BioAssay data set” (2004).
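Interpolation was linear, between the two tested concentrations surrounding the appropriate level; five concentrations were tested over 48 hours in 96-well plates. At the GI50, growth is halved.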 Calls of active or inactive are those of the source. Cut-off read from the data, not from the text of the source: active = GI50 up to about 1.1 µM and inactive = higher.

Key:
Assay in all cases: DTP human tumour cell line panel, 48 h
A549 = test system: A549
MDA-N = test system: MDA-N
Hs-578T = test system: Hs-578T
OVCAR-5 = test system: OVCAR-5
HOP-92 = test system: HOP-92
TK-10 = test system: TK-10
HL-60 = test system: HL-60
M14 = test system: M14
SK-MEL-2 = test system: SK-MEL-2
SF-539 = test system: SF-539
MDA-MB-231 = test system: MDA-MB-231
CAKI-1 = test system: CAKI-1
KM12 = test system: KM12
SF-268 = test system: SF-268
SR = test system: SR
PC-3 = test system: PC-3
HT-29 = test system: HT-29
SF-295 = test system: SF-295
HCT-15 = test system: HCT-15
BT-549 = test system: BT-549

O=Cc1cc2c(s1)C(=O)c1sccc1C2=O
GI50 (A549): 0.813 µM (active) | GI50 (MDA-N): 0.0484 µM (active) | GI50 (Hs-578T): 0.231 µM (active) | GI50 (OVCAR-5): 0.865 µM (active) | GI50 (HOP-92): 1.46 µM (inactive) | GI50 (TK-10): 1.92 µM (inactive) | GI50 (HL-60): 0.863 µM (active) | GI50 (M14): 0.0403 µM (active) | GI50 (SK-MEL-2): 0.337 µM (active) | GI50 (SF-539): 0.215 µM (active) | GI50 (MDA-MB-231): 0.792 µM (active) | GI50 (CAKI-1): 1.77 µM (inactive) | GI50 (KM12): 2.68 µM (inactive) | GI50 (SF-268): 0.247 µM (active) | GI50 (SR): 0.303 µM (active) | GI50 (PC-3): 2.08 µM (inactive) | GI50 (HT-29): 1.88 µM (inactive) | GI50 (SF-295): 0.169 µM (active) | GI50 (HCT-15): 0.381 µM

Cc1cc(O)no1 [HYMEXAZOL]
GI50 (A549): > 100 µM (inactive) | GI50 (Hs-578T): > 100 µM (inactive) | GI50 (OVCAR-5): > 100 µM (inactive) | GI50 (HOP-92): > 100 µM (inactive) | GI50 (TK-10): > 100 µM (inactive) | GI50 (M14): > 100 µM (inactive) | GI50 (SK-MEL-2): > 100 µM (inactive) | GI50 (SF-539): > 100 µM (inactive) | GI50 (MDA-MB-231): > 100 µM (inactive) | GI50 (BT-549): > 100 µM (inactive) | GI50 (CAKI-1): > 100 µM (inactive) | GI50 (SF-268): > 100 µM (inactive) | GI50 (PC-3): > 100 µM (inactive) | GI50 (HT-29): > 100 µM (inactive) | GI50 (SF-295): > 100 µM (inactive) | GI50 (HCT-15): > 100 µM

CCCCCCNC(=O)CCC(NC(=O)c1ccc(N(C)Cc2cnc3nc(N)nc(N)c3n2)cc1)C(=O)NCCCCCC (stereo unspecified)
GI50 (A549): > 100 µM (inactive) | GI50 (MDA-N): 9.89 µM (inactive) | GI50 (OVCAR-5): > 100 µM (inactive) | GI50 (HOP-92): 98.2 µM (inactive) | GI50 (TK-10): > 100 µM (inactive) | GI50 (M14): 73.8 µM (inactive) | GI50 (SK-MEL-2): > 100 µM (inactive) | GI50 (MDA-MB-231): 34.8 µM (inactive) | GI50 (BT-549): > 100 µM (inactive) | GI50 (CAKI-1): > 100 µM (inactive) | GI50 (KM12): > 100 µM (inactive) | GI50 (SF-268): > 100 µM (inactive) | GI50 (SR): > 100 µM (inactive) | GI50 (PC-3): > 100 µM (inactive) | GI50 (HT-29): 88.7 µM (inactive) | GI50 (SF-295): 16.7 µM (inactive) | GI50 (HCT-15): > 100 µM

O=C(CCCN1CCc2[nH]c3cc(F)ccc3c2C1)c1ccc(F)cc1
GI50 (A549): 15.8 µM (inactive) | GI50 (MDA-N): 15.7 µM (inactive) | GI50 (Hs-578T): 10.5 µM (inactive) | GI50 (OVCAR-5): 12.2 µM (inactive) | GI50 (HOP-92): 2.26 µM (inactive) | GI50 (TK-10): 12.4 µM (inactive) | GI50 (HL-60): 11.1 µM (inactive) | GI50 (M14): 9.82 µM (inactive) | GI50 (SK-MEL-2): 18 µM (inactive) | GI50 (SF-539): 16.7 µM (inactive) | GI50 (MDA-MB-231): 12.5 µM (inactive) | GI50 (CAKI-1): > 100 µM (inactive) | GI50 (KM12): 13.9 µM (inactive) | GI50 (SF-268): 13.1 µM (inactive) | GI50 (SR): 8.49 µM (inactive) | GI50 (PC-3): 12.9 µM (inactive) | GI50 (HT-29): 6.11 µM (inactive) | GI50 (SF-295): 17.4 µM (inactive) | GI50 (HCT-15): 16.8 µM

Cc1sc(N/N=C2\C(=O)Nc3ccccc32)nc1-c1ccccc1
GI50 (A549): 14.8 µM (inactive) | GI50 (MDA-N): 19.4 µM (inactive) | GI50 (OVCAR-5): 20.9 µM (inactive) | GI50 (HOP-92): 23 µM (inactive) | GI50 (TK-10): 23.8 µM (inactive) | GI50 (HL-60): 4.23 µM (inactive) | GI50 (M14): 16 µM (inactive) | GI50 (SK-MEL-2): 18.7 µM (inactive) | GI50 (SF-539): 18.8 µM (inactive) | GI50 (MDA-MB-231): 14.5 µM (inactive) | GI50 (BT-549): 16.3 µM (inactive) | GI50 (CAKI-1): 17.4 µM (inactive) | GI50 (KM12): 13.6 µM (inactive) | GI50 (SF-268): 13.6 µM (inactive) | GI50 (HT-29): 20.3 µM (inactive) | GI50 (SF-295): 11 µM (inactive) | GI50 (HCT-15): 9.38 µM

COc1c(Br)cc(/C=C(\C#N)c2ccccn2)cc1Br
GI50 (A549): > 100 µM (inactive) | GI50 (MDA-N): > 10 µM (inactive) | GI50 (OVCAR-5): > 100 µM (inactive) | GI50 (TK-10): 67.6 µM (inactive) | GI50 (HL-60): > 100 µM (inactive) | GI50 (M14): > 100 µM (inactive) | GI50 (SK-MEL-2): 13.8 µM (inactive) | GI50 (SF-539): 33.4 µM (inactive) | GI50 (BT-549): 22.8 µM (inactive) | GI50 (CAKI-1): > 100 µM (inactive) | GI50 (KM12): > 100 µM (inactive) | GI50 (SF-268): 23.2 µM (inactive) | GI50 (SR): > 100 µM (inactive) | GI50 (PC-3): > 100 µM (inactive) | GI50 (HT-29): > 100 µM (inactive) | GI50 (SF-295): 19.2 µM (inactive) | GI50 (HCT-15): 84.9 µM

CN(C)CCNC(=O)c1cc(-c2nccn2C)nc2ccccc12
GI50 (A549): > 100 µM (inactive) | GI50 (MDA-N): > 100 µM (inactive) | GI50 (OVCAR-5): > 100 µM (inactive) | GI50 (HOP-92): 64.7 µM (inactive) | GI50 (TK-10): > 100 µM (inactive) | GI50 (HL-60): > 100 µM (inactive) | GI50 (M14): > 100 µM (inactive) | GI50 (SK-MEL-2): > 100 µM (inactive) | GI50 (SF-539): > 100 µM (inactive) | GI50 (MDA-MB-231): > 100 µM (inactive) | GI50 (BT-549): 81.1 µM (inactive) | GI50 (CAKI-1): > 100 µM (inactive) | GI50 (KM12): > 100 µM (inactive) | GI50 (SF-268): > 100 µM (inactive) | GI50 (SR): > 100 µM (inactive) | GI50 (PC-3): > 100 µM (inactive) | GI50 (HT-29): > 100 µM (inactive) | GI50 (HCT-15): 66.1 µM

CC(C)(C)c1ccc2c(c1)C(=O)c1ccccc1C2=O
GI50 (A549): 38.6 µM (inactive) | GI50 (MDA-N): 37.5 µM (inactive) | GI50 (Hs-578T): 90.2 µM (inactive) | GI50 (OVCAR-5): 82.6 µM (inactive) | GI50 (HOP-92): 15.5 µM (inactive) | GI50 (TK-10): 86.3 µM (inactive) | GI50 (HL-60): 64.6 µM (inactive) | GI50 (M14): > 100 µM (inactive) | GI50 (SF-539): > 100 µM (inactive) | GI50 (MDA-MB-231): > 100 µM (inactive) | GI50 (BT-549): 24.8 µM (inactive) | GI50 (CAKI-1): > 100 µM (inactive) | GI50 (KM12): 36 µM (inactive) | GI50 (SF-268): 39.4 µM (inactive) | GI50 (PC-3): 37.7 µM (inactive) | GI50 (HT-29): 27.2 µM (inactive) | GI50 (SF-295): 56.4 µM (inactive) | GI50 (HCT-15): 39.7 µM
